In data set [1] the test system is emesis induced by apomorphine IV and syrup of ipecac orally. Conditions: dogs; centrally acting emetogens (apomorphine IV) and peripherally acting emetogens (syrup of ipecac orally); cited from earlier work.
Data set [2] in a line: Competitive slurry experiments of polymorphic forms. Type of data set: physicochemical. Conditions: competitive slurry of Form 1 with Form 2 and Form 3 in acetonitrile at room temperature (20-25° C.) and 75° C. An excerpt: Three anhydrous polymorphic forms of telmapitant or (5R,8S)-8-[[(1R)-1-[3,5-bis(trifluoromethyl)phenyl]ethoxy]methyl]-8-phenyl-1,3,7-triazaspiro[4.5]decane-2,4-dione (MK-7035) have been identified during polymorph screening.

As to `COc1ccc(C(C)(C)C)cc1CN[C@H]1C2CCN(CC2)[C@H]1C(c1ccccc1)c1ccccc1` [maropitant], the efficacy against emetogens entry in data set [1] is recorded as “effective”. Turning to `C[C@@H](OC[C@@]1(c2ccccc2)CC[C@]2(CN1)NC(=O)NC2=O)c1cc(C(F)(F)F)cc(C(F)(F)F)c1` [Form 1, (5R,8S)-8-[[(1R)-1-[3,5-bis(trifluoromethyl)phenyl]ethoxy]methyl]-8-phenyl-1,3,7-triazaspiro[4.5]decane-2,4-dione], the “relative thermodynamic stability of polymorphic forms” value in data set [2] was “thermodynamically more stable than Form 2 and Form 3”.
